In ChEMBL document CHEMBL5154853, “Synthesis and Pharmacological Evaluation of New N-Sulfonylureas as NLRP3 Inflammasome Inhibitors: Identification of a Hit Compound to Treat Gout” (J Med Chem, 2022):
Calls of active or inactive are those of the source.

Experiments:
[1] = tested on: AML12; assay: Cytotoxicity against mouse AML12 cells assessed as reduction in cell viability at 0.01 to 30 uM measured after 24 hrs by MTT assay; type: toxicity, cell-based; conditions: aml12, 24 h, dose 0.01-30 µM
[2] = tested on: J774.A1; assay: Cytotoxicity against mouse J774.A1 cells assessed as reduction in cell viability at 10 uM measured after 24 hrs by MTT assay relative to control; type: toxicity, cell-based; conditions: j774.a1, 24 h
[3] = tested on: J774.A1; assay: Cytotoxicity against mouse J774.A1 cells assessed as reduction in cell viability at 30 uM measured after 24 hrs by MTT assay relative to control; type: toxicity, cell-based; conditions: j774.a1, 24 h
[4] = tested on: J774.A1; assay: Cytotoxicity against mouse J774.A1 cells assessed as reduction in cell viability at 0.01 to 3 uM measured after 24 hrs by MTT assay; type: toxicity, cell-based; conditions: j774.a1, 24 h, dose 0.01-3 µM
[5] = target: NACHT, LRR and PYD domains-containing protein 3 (Mus musculus, UniProt Q8R4B8); assay: Inhibition of NLRP3 inflammasome activation in LPS-primed mouse BMDM cells assessed as reduction in ATP induced IL-1beta release pretreated for 15 mins followed by ATP stimulation for 30 mins by ELISA; type: cell-based
[6] = tested on: Mus musculus; assay: Antiinflammatory activity in MSU-induced acute gout arthritis in wild type male C57BL/6J mouse model assessed as decrease in paw inflammation at 3 mg/kg, ip measured after 24 hrs; type: functional, organism-based
[7] = tested on: Mus musculus; assay: Antiinflammatory activity in MSU-induced acute gout arthritis in NLRP3 knock out C57BL/6J mouse model assessed as reduction in paw swelling at 3 mg/kg, ip measured after 24 hrs relative to control; type: functional; set-up: scale not given: the % may be the effect or the level left
[8] = target: NACHT, LRR and PYD domains-containing protein 3 (Mus musculus) (UniProt Q8R4B8); assay: Inhibition of NLRP3 inflammasome oligomerization in LPS-primed mouse BMDM cells assessed as prevention of ASC specks formation at 1 uM pretreated for 15 mins followed by MSU stimulation for 30 mins by DAPI staining based confocal microscopic analysis; type: cell-based; conditions: time 45.0 min
[9] = target: NACHT, LRR and PYD domains-containing protein 3 (Mus musculus) (UniProt Q8R4B8); assay: Inhibition of NLRP3 inflammasome oligomerization in LPS-primed mouse BMDM cells assessed as prevention of ASC specks formation at 1 uM pretreated for 15 mins followed by ATP stimulation for 30 mins by DAPI staining based confocal microscopic analysis; type: cell-based; conditions: time 45.0 min
[10] = tested on: Mus musculus; assay: Antiinflammatory activity in MSU-induced acute gout arthritis in wild type male C57BL/6J mouse model assessed as decrease in paw inflammation at 3 to 10 mg/kg, ip measured after 24 hrs; type: functional, organism-based; conditions: dose 3-10 mg/kg
[11] = tested on: Mus musculus; assay: Antiinflammatory activity in MSU-induced acute gout arthritis in wild type male C57BL/6J mouse model assessed as decrease in paw inflammation at 3 mg/kg, ip measured after 24 hrs relative to control; type: functional; set-up: scale not given: the % may be the effect or the level left
[12] = tested on: Mus musculus; assay: Antiinflammatory activity in MSU-induced acute gout arthritis in wild type female C57BL/6J mouse model assessed as decrease in paw inflammation at 3 mg/kg, ip measured after 24 hrs relative to control; type: functional; set-up: scale not given: the % may be the effect or the level left
[13] = tested on: Mus musculus; assay: Antiinflammatory activity in MSU-induced acute gout arthritis in wild type male C57BL/6J mouse model assessed as decrease in paw inflammation at 10 mg/kg, ip measured after 24 hrs relative to control; type: functional; set-up: scale not given: the % may be the effect or the level left
[14] = tested on: Mus musculus; assay: Antiinflammatory activity in MSU-induced acute gout arthritis in wild type female C57BL/6J mouse model assessed as decrease in paw inflammation at 10 mg/kg, ip measured after 24 hrs relative to control; type: functional; set-up: scale not given: the % may be the effect or the level left
[15] = tested on: Mus musculus; assay: Antiinflammatory activity in MSU-induced acute gout arthritis in NLRP3 knockout male C57BL/6J mouse model assessed as reduction in paw inflammation at 3 to 10 mg/kg, ip measured after 24 hrs relative to control; type: functional; set-up: scale not given: the % may be the effect or the level left; conditions: dose 3-10 mg/kg
[16] = tested on: Mus musculus; assay: Antiinflammatory activity in MSU-induced acute gout arthritis in NLRP3 knockout female C57BL/6J mouse model assessed as reduction in paw inflammation at 3 to 10 mg/kg, ip measured after 24 hrs relative to control; type: functional; set-up: scale not given: the % may be the effect or the level left; conditions: dose 3-10 mg/kg
[17] = tested on: Mus musculus; assay: Analgesic activity in MSU-induced mechanical hyperalgesia in wild type C57BL/6J mouse model assessed as decrease in paw withdrawal threshold at 3 mg/kg, ip measured after 24 hrs by von Frey test (Rvb= 72%); type: functional; set-up: scale not given: the % may be the effect or the level left
[18] = tested on: Mus musculus; assay: Analgesic activity in MSU-induced mechanical hyperalgesia in wild type C57BL/6J mouse model assessed as decrease in paw withdrawal threshold at 10 mg/kg, ip measured after 24 hrs by von Frey test (Rvb= 72%); type: functional; set-up: scale not given: the % may be the effect or the level left
[19] = target: NACHT, LRR and PYD domains-containing protein 3 (Mus musculus) (UniProt Q8R4B8); assay: Inhibition of NLRP3 inflammasome activation in LPS-primed mouse BMDM cells assessed as inhibition of IL-1beta cleavage in supernatant at 1 uM pretreated for 15 mins followed by ATP addition for 30 mins by Western blot analysis; type: cell-based; conditions: time 45.0 min
[20] = target: NACHT, LRR and PYD domains-containing protein 3 (Mus musculus) (UniProt Q8R4B8); assay: Inhibition of NLRP3 inflammasome activation in LPS-primed mouse BMDM cells assessed as inhibition of caspase-1 cleavage in supernatant at 1 uM pretreated for 15 mins followed by ATP addition for 30 mins by Western blot analysis; type: cell-based; conditions: time 45.0 min

Chain of NACHT, LRR and PYD domains-containing protein 3 (Mus musculus) (Q8R4B8 whole entry, the tested form may be a part): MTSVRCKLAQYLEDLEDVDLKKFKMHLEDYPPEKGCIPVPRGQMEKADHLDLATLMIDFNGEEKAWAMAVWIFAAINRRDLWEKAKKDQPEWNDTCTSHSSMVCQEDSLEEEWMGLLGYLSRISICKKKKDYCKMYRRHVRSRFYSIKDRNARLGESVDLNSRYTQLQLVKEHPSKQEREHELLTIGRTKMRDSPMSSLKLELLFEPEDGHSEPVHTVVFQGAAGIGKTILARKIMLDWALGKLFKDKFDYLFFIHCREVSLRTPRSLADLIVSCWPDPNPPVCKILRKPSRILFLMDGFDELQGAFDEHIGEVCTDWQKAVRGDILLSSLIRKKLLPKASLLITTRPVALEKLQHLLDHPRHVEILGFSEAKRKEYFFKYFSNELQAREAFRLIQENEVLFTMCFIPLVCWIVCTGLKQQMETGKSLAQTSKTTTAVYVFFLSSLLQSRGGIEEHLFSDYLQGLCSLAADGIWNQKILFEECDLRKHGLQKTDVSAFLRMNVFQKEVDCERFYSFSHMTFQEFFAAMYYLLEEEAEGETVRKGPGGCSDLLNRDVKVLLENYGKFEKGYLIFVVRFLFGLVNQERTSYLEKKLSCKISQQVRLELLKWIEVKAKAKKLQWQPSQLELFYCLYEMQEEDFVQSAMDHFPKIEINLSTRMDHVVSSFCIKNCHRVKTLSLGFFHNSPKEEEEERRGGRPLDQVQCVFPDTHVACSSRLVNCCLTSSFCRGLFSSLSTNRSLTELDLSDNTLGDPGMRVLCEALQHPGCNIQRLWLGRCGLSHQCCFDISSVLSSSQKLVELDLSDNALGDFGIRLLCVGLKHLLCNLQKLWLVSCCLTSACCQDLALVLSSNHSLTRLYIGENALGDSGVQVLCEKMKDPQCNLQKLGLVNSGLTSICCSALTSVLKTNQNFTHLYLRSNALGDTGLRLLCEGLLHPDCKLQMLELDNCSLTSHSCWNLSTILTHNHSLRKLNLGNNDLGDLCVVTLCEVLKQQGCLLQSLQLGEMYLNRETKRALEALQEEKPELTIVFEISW
Chain of NACHT, LRR and PYD domains-containing protein 3 (Q8R4B8 whole entry, the tested form may be a part): as above

| SMILES | Activity [1] | Activity [2] [%] | Activity [3] [%] | Activity [4] | IC50 [5] [pM] | Activity [6] | Activity [7] [%] | inhibition [8] | inhibition [9] | Activity [10] | Activity [11] [%] | Activity [12] [%] | Activity [13] [%] | Activity [14] [%] | Activity [15] [%] | Activity [16] [%] | Activity [17] [%] | Activity [18] [%] | inhibition [19] | inhibition [20] |
| --- | --- | --- | --- | --- | --- | --- | --- | --- | --- | --- | --- | --- | --- | --- | --- | --- | --- | --- | --- | --- |
| CC(C)(O)c1coc(S(=O)(=O)NC(=O)Nc2c3c(cc4c2CCC4)CCC3)c1 | Non-Toxic | 30 | 30 | Non-Toxic | 390 | Active | 33 | – | – | – | – | – | – | – | – | – | – | – | – | – |
| Cc1cc(C)cc(NC(=O)[N-]S(=O)(=O)c2cc(C(C)(C)O)co2)c1.[Na+] | Non-Toxic | 20 | 20 | Non-Toxic | 230 | – | – | Active | Active | Active | 40 | 33 | 66 | 52 | 65 | 60 | 47 | 19 | Active | Active |
